Results on four compounds are retold here after paper PMC9104013, “Role of Polyamine-Induced Dimerization of Antizyme in Its Cellular Functions” (International Journal of Molecular Sciences, 2022).

Usually Kd stands for the concentration at which binding is half-saturated. Broadly, the Tm is the temperature at the midpoint of the melting transition.

Structures are written as SMILES. Where two headings read alike, the source gives them in different places.

The test system of experiment [1] is transgenic rats with activated polyamine catabolism. Also on record: method as in PMID 12181316, PMID 19956991, PMID 20453551. The note with it: cited from earlier work.
Another experiment has as its target T1, mouse OAZ1 (mOAZ1) (Mus musculus, UniProt P54369).
T1 construct: Full-length mOAZ1 protein was successfully produced in E. coli; made in house; host or cells: Escherichia coli Rosetta (DE3)
Briefly: Isothermal titration calorimetry of polyamines binding to mOAZ1. The note with it: for ΔH (enthalpy variation) / Ka (affinity constant): pH 7.5; for ΔH (enthalpy variation): SD did not exceed ±20%; for Ka (affinity constant): SD did not exceed ±25%; for TΔS (entropy variation): calculated from TΔS = ΔH + RTlnKa; for Binding to mOAZ1: under the conditions used. The procedure: For the precise isothermal titration calorimetry (ITC) experiments only freshly purified samples turned out to be suitable. The thermodynamic parameters of polyamines binding to OAZ1 were measured using a MicroCal iTC200 instrument (GE Healthcare, Chicago, IL, USA) as described elsewhere. Experiments were carried out at 31 °C in buffer containing 25 mM potassium phosphate, pH 7.5; 150 mM KCl; 25% (v/v) glycerol; 1 mM 2-mercaptoethanol; and 1 mM PMSF. Aliquots (2.5 μL) of ligands were injected into a 0.2 mL cell containing the protein solution to achieve a complete binding isotherm. Protein and ligand concentrations were 20 μM and 200 μM, respectively. The heat of dilution was measured by injection of the ligand into the buffer solution or by additional injections of ligand after saturation; the values obtained were subtracted from the heat of reaction to obtain the effective heat of binding. The resulting titration curves were fitted using the MicroCal Origin software, assuming one set of binding sites. Affinity constants (Ka) and enthalpy variations (ΔH) were determined, and the entropy variations (ΔS) were calculated from the equation: TΔS = ΔH + RTlnKa.

The subject of experiment [2] is 72-mer-2'-O-Me-oligoribonucleotide L-OM, containing the +1 frameshift site, hairpin and pseudoknot of the mOAZ1 mRNA. Briefly: RNA melting point (UV thermal denaturation). Conditions: for Tm: 1 μM L-OM, 50 mM Tris-HCl pH 7.5, 50 mM NaCl. Format: binding, mouse. The method, then:
UV thermal denaturation data were obtained on a Hitachi U-2900 spectrophotometer equipped with a Peltier temperature controller. The concentration of model 72-mer-2′-O-Me-oligoribonucleotide L-OM, containing the +1 frameshift site, hairpin, and pseudoknot of the mOAZ1 mRNA was 1 µM. Samples were dissolved in 50 mM Tris-HCl, pH 7.5 and 50 mM NaCl buffer. Concentration of oligonucleotide was determined after quantitating the samples by UV absorbance at λ = 260 nm. Samples were heated to 90 °C for 10 min then cooled slowly to room temperature and stored at 5 °C for at least 18 h before the measurements were performed. Denaturation curves were acquired at 260 nm for the duplexes at a rate of 0.5 °C/min, within a range of 30–90 °C. The Tm values were determined from polynomial fitting of the observed curves and taken as the temperatures corresponding to half-dissociation of complex. The first derivative of absorption with respect to temperature, dA/dT, of the melting curve was computer-generated by the GraphPad Prism 7.0 software and used for the determining of Tm.

Experiment [3] relates to OAZ1-overexpressing DU145 cells. Nature of the experiment: Uptake of Spd and its analogues in OAZ1-overexpressing DU145 cells. Type of experiment: cell-based. Conditions: DOX 250 ng/mL 24 h, compounds 100 µM, 6 h. The procedure: (§1) Figure 3 2-MeSpd is the weakest inducer of OAZ1 synthesis and the weakest downregulator of ODC in DU145 cells. (A) Uptake of Spd and its analogues in CHX-treated DU145 cells. After 2 h preincubation with CHX (100 µg/mL), the compounds (100 µM) were added, and incubation continued for 4 h before the analysis of the intracellular analogue concentration. (B) Uptake of Spd and its analogues in OAZ1-overexpressing DU145 cells. OAZ1 was induced by 24 h preincubation with DOX (250 ng/mL). The compounds (100 µM) were added for further 6 h before the analysis of intracellular analogue concentration. (C) Effect of Spd and the analogues on OAZ1 protein levels in DU145 cells. The cells were incubated for 4 h with 100 μM analogues in the presence of the proteasomal inhibitor, MG132 (25 μM). (D) Effect of Spd and the analogues on ODC activity in DU145 cells. […]
(§2) Polyamines were measured with HPLC according to the published method. Acid-precipitated pellets were dissolved to 0.1 M NaOH, and the amount of DNA was measured using the PicoGreen reagent (Invitrogen) according to manufacturer’s instructions using dilutions of calf thymus DNA (Sigma-Aldrich) as standard curve. Protein concentrations were measured using Bio-Rad protein kit with dilutions of bovine serum albumin (Bio-Rad, Hercules, CA, USA) as standards. ODC activities were measured from the cytosolic fractions as described earlier. […]

Another experiment deals with OAZ1 protein. Nature of the experiment: OAZ1 protein levels in DU145 cells (Western blotting). Format: cell-based. The note with it: 4 h, 100 μM, MG132 25 μM. The procedure: as §1, §2
Background: Immunoblotting shows a protein as a band on a membrane.

Setting [4] is: ITC, read-out: Kd of complex with mOAZ1.
Setting [5] is: calculated as 1/Ka, no binding = not detected, Kd > 50 μM not detectable, read-out: Kd (dissociation constant).
Setting [6] is: polyamine concentration 20 μM, without polyamine 65.5±0.6.

T1 sequence (P54369 whole entry): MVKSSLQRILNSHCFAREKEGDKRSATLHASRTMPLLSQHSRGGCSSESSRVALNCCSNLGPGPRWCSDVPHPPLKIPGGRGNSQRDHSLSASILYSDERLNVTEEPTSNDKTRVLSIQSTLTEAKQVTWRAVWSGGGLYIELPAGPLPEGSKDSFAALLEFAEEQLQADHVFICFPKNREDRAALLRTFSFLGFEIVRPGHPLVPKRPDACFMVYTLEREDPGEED

Turning to `CC(N)CCNCCCCN` (stereo not shown) [1-MeSpd], the Acute pancreatitis entry in experiment [1] was “prevented acute pancreatitis”. Moreover, the Liver regeneration result in experiment [1] is listed as “restored liver regeneration”. The “ΔH (enthalpy variation)” value on mouse OAZ1 (mOAZ1) (ITC, 31 °C) is -2.2 kcal/mol. Besides, the “Ka (affinity constant)” value on mouse OAZ1 (mOAZ1) (ITC, 31 °C) was found to be 540000 M⁻¹. Also, the Kd on mouse OAZ1 (mOAZ1) (setting [4]) was approximately 1000 nM; at mouse OAZ1 (mOAZ1) (setting [5]) it was 1900 nM. In addition, on mouse OAZ1 (mOAZ1), the “TΔS (entropy variation)” value was 5.8 kcal/mol. Besides, the Tm in experiment [2] (setting [6]) came to 73.0±0.4 °C; in experiment [2] (polyamine concentration 50 μM), 74.0±0.3 °C; in experiment [2] (polyamine concentration 200 μM), 80.2±0.6 °C.
With `CC(CN)CNCCCCN` (stereo not shown) [2-MeSpd], the “Uptake upon DOX-induced expression of OAZ1” value in experiment [3] is listed as “reduced the uptake”. Besides, the “Stoichiometry mOAZ1/Polyamine” value on mouse OAZ1 (mOAZ1) (ITC, 31 °C, pH 7.5, 150 mM KCl, 25% glycerol, protein 20 μM, ligand 200 μM) was “No binding ^f”. Further, the “ΔH (enthalpy variation)” value at mouse OAZ1 (mOAZ1) (ITC, 31 °C) is “No binding ^f”. On mouse OAZ1 (mOAZ1) (ITC, 31 °C), the “Ka (affinity constant)” value is given as “No binding ^f”. On mouse OAZ1 (mOAZ1) (ITC), the “Binding to mOAZ1” value is reported as “not detected”. For the same compound, the “Kd (dissociation constant)” value at mouse OAZ1 (mOAZ1) (calculated as 1/Ka, no binding = not detected, Kd > 50 μM not detectable) is on record as “No binding ^f”. For the same compound, the “TΔS (entropy variation)” value on mouse OAZ1 (mOAZ1) is “No binding ^f”. The “OAZ1 protein level induction” value in the experiment on OAZ1 protein is “only marginally induced”. In addition, in experiment [2], the “Tm lower compared with Spd and the other analogues” value is 2–3 °C. Moreover, the Tm amounted to 70.5±0.5 °C in experiment [2] (setting [6]), 73.4±0.4 °C in experiment [2] (polyamine concentration 50 μM) and 77.5±0.5 °C in experiment [2] (polyamine concentration 200 μM).
Regarding `CC(CCN)NCCCCN` (stereo not shown) [3-MeSpd], at mouse OAZ1 (mOAZ1) (ITC, 31 °C), the “ΔH (enthalpy variation)” value is -1.2 kcal/mol. For the same compound, the “Ka (affinity constant)” value on mouse OAZ1 (mOAZ1) (ITC, 31 °C) was 400000 M⁻¹. The results for the Kd on mouse OAZ1 (mOAZ1) (setting [4]) and on mouse OAZ1 (mOAZ1) (setting [5]) were approximately 1000 nM and 2500 nM, respectively. In addition, the “TΔS (entropy variation)” value on mouse OAZ1 (mOAZ1) was 6.6 kcal/mol. For the same compound, the Tm in experiment [2] (setting [6]) worked out at 71.9±0.5 °C; in experiment [2] (polyamine concentration 50 μM) it was 75.2±0.4 °C; in experiment [2] (polyamine concentration 200 μM) it was 79.4±0.5 °C.
As for `NCCCCNCCCN` [Spd, spermidine], the “ΔH (enthalpy variation)” value on mouse OAZ1 (mOAZ1) (ITC, 31 °C) is -3.3 kcal/mol. Besides, the “Ka (affinity constant)” value on mouse OAZ1 (mOAZ1) (ITC, 31 °C) came to 280000 M⁻¹. For the same compound, the “Binding to mOAZ1” value at mouse OAZ1 (mOAZ1) (ITC) was “bound to mOAZ1”. In addition, the results for the Kd on mouse OAZ1 (mOAZ1) (setting [4]) and on mouse OAZ1 (mOAZ1) (setting [5]) were approximately 1000 nM and 3600 nM, respectively. At mouse OAZ1 (mOAZ1), the “TΔS (entropy variation)” value is 4.2 kcal/mol. Moreover, the “OAZ1 protein level induction” value in the experiment on OAZ1 protein is “clear induction”. Moreover, the melting temperature (Tm) in experiment [2] (setting [6]) was determined as 73.7±0.6 °C; in experiment [2] (polyamine concentration 50 μM), 75.3±0.4 °C; in experiment [2] (polyamine concentration 200 μM), 79.7±1.1 °C.
